Experiments:
HCT116 p53^−/− = test: SRB growth inhibition assay in HCT116 p53^−/− colon carcinoma cells; type: cell-based, human; conditions: 48 hours incubation, mean±S.E.M.
Procedure: (§1) Tumor cells were plated at 5.0×10^3 cells/well in 96-well plates and incubated for 24 hours. Cells were then exposed to serial dilutions of SLMP53-1, CP-31398 or PRIMA-1 (from 1.85 to 150 μM). The effect of the compounds was analyzed following 48 hours incubation, using the sulforhodamine B (SRB) assay. The solvent DMSO corresponding to the maximum concentration used in these assays (0.025%) was included as control. The GI50 value, the concentration of compound that causes 50% growth inhibition, was calculated for the tested compounds. Results are the mean±S.E.M. of three independent experiments.

MDA-MB-231 cells = test: apoptosis by flow cytometry (FITC-Annexin V and propidium iodide), MDA-MB-231; type: cell-based, human; conditions: GI50, 24 hours
Procedure: (§2) Apoptosis was analyzed by flow cytometry using FITC-Annexin V and propidium iodide. The effect of compounds was analyzed after 24 hours treatment using the concentration of GI50. Histograms represent one of two independent experiments; quantification of cells in apoptosis represents the mean±S.E.M. of two independent experiments.

HCT116 p53^+/+ = test: SRB growth inhibition assay in HCT116 p53^+/+ colon carcinoma cells; type: cell-based, human; conditions: for GI50: HCT116 p53^+/+, 48 hours incubation, SRB, mean±S.E.M.
Procedure: as §1

MDA-MB-231 (p53R280K) = test: SRB growth inhibition assay in MDA-MB-231 breast cancer cells; type: cell-based, human; conditions: 48 hours incubation, mean±S.E.M.
Procedure: as §1, with “7.5×10^3” for “5.0×10^3”, “incubation period,” for “incubation,”, “value, which is” for “value,”

[1] = Rippin et al. 2002; Jonhson et al. 2011; cited from earlier work
HCT116 p53^+/+ cells [2] = test: cell cycle analysis by flow cytometry (propidium iodide), HCT116 p53^+/+; type: cell-based, human; conditions: double GI50, 24 hours
Procedure: FIG. 3 illustrates the effect of SLMP53-1 on cell cycle progression of HCT116 p53^+/+ cells. Cell cycle phases were analyzed by flow cytometry using propidium iodide and quantified using ModFit LT software (Verity Software House Inc., Topsham, USA). Effect of compounds (double GI50) was analyzed after 24 hours treatment. Histograms represent one of two independent experiments; quantification of cell cycle phases represents the mean±S.E.M. of two independent experiments.

HCT116 p53^+/+ cells [3] = test: apoptosis by flow cytometry (FITC-Annexin V and propidium iodide), HCT116 p53^+/+; type: cell-based, human; conditions: GI50 and double GI50, 24 hours
Procedure: as §2, with “concentration of GI50 and double GI50. Histograms” for “concentration of GI50. Histograms”

human wt p53 = molecular target: T1, human wt p53 (Homo sapiens, UniProt P04637); test: yeast-based assay, yeast cells expressing human wt p53 (growth by CFU counts, cell cycle, actin Western blot)
T1 construct: expressed in transfected cells
T1 sequence (P04637 whole entry): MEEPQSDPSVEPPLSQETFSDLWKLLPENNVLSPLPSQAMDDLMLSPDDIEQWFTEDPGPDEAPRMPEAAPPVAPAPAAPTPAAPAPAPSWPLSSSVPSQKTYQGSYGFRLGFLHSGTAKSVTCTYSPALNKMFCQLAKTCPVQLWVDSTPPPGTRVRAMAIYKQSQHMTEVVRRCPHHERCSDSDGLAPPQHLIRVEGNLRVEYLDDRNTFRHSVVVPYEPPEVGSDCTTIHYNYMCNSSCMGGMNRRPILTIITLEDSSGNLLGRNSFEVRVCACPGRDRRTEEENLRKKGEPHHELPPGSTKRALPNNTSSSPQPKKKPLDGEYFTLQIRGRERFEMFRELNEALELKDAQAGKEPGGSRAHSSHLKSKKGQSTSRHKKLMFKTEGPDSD
Procedure: FIG. 1 illustrates that SLMP53-1 and SLMP53-2 increase the p53 effects in yeast. Yeast cells expressing human wt p53 and transformed with the empty vector (control yeast) were incubated in selective induction medium in the presence of 0.1-25 μM compound or DMSO only, for 42 hours. (A) Effect of 10 μM SLMP53-1 and SLMP53-2 on the p53-induced yeast growth inhibition. Results are plotted setting as one unit the p53-induced growth inhibition in the presence of DMSO only. Growth was estimated by colony-forming unit (CFU) counts. […] (B) Dose-response curve for SLMP53-1 in yeast cells expressing human p53 and control yeast. Cells were incubated in selective medium with 0.1-25 μM of SLMP53-1 or DMSO only. Results are plotted setting as 100% growth inhibition the number of CFU obtained in the presence of DMSO only. Data are mean±S.E.M. of three independent experiments (*P<0.05; unpaired Student's t-test). (C) Effect of SLMP53-1 and SLMP53-2 on p53-induced S-phase cell cycle arrest in yeast. Cell cycle phases were analyzed by flow cytometry using Sytox Green and quantified using ModFit LT software; quantification of cell cycle phases represent the mean values. (D) Increase of p53-induced actin protein expression levels by SLMP53-1 and SLMP53-2 in yeast expressing p53. Western Blot band intensity was quantified using Pgk1p as loading control (with Bio-Profile Bio-1D++ software).
Using a yeast-based screening approach, the chiral compounds SLMP53-1 and SLMP53-2 were identified as potential activators of wt p53, from a chemical library of tryptophanol-derived oxazoloisoindolinones with general formula (I) shown in FIG. 1, wherein X, R^1, R^2, R^3, R^4, R^5, R^6, R^7, R^8, R^9 and R^10 are as defined herein, as well as their stereoisomers, enantiomers, ra.cemates, tautomers thereof or mixtures thereof; or a pharmaceutically acceptable salt, solvate or prodrug thereof. In the yeast cell model, compounds SLMP53-1 and SLMP53-2 increased the previously reported (Coutinho et al. FEBS Lett. 2009, 583, 3582-3588) p53-induced growth inhibition (FIGS. 1A and B) and S-phase cell cycle arrest (FIG. 1C).

[4] = HCT116 p53^+/+ vs HCT116 p53^−/−

| GI50 in HCT116 p53^+/+ cells lower than in HCT116 p53^−/− cells (HCT116 p53^+/+; [4]) [fold] | p53-induced growth inhibition (human wt p53; yeast expressing human wt p53, 10 μM, 42 hours, vs DMSO only) | p53-induced S-phase cell cycle arrest (human wt p53; yeast expressing human wt p53, flow cytometry) | actin protein levels (human wt p53; yeast expressing p53, Western blot, vs DMSO only) | SMILES | GI50 (HCT116 p53^−/−) [µM] | apoptosis (MDA-MB-231 cells) | p53 dependence of anti-proliferative effect (HCT116 p53^+/+; [4]) | GI50 (HCT116 p53^+/+) [µM] | GI50 (MDA-MB-231 (p53R280K)) [µM] | cytotoxic and genotoxic effects (reported) [1] | cell cycle progression (HCT116 p53^+/+ cells [2]) | apoptosis (HCT116 p53^+/+ cells [3]) |
| --- | --- | --- | --- | --- | --- | --- | --- | --- | --- | --- | --- | --- |
|  |  |  |  | O=C1C2CCN(CC2)C1(CO)CO [PRIMA-1] | 13.1 ± 2 | apoptotic cell death | p53-independent | 19.9 ± 4 | 29.8 ± 3.1 |  |  |  |
| 2 |  |  |  | COc1ccc(/C=C/c2nc(NCCCN(C)C)c3ccccc3n2)cc1 [CP-31398] | 7.3 ± 0.6 | apoptotic cell death | p53-dependent anti-proliferative effect | 3.4 ± 0.1 | 2.3 ± 0.9 | cytotoxic and genotoxic effects have been reported | G0/G1-phase cell arrest | apoptotic cell death |
|  | increased | increased | increased the actin protein levels | C[C@@]12OC[C@@H](Cc3c[nH]c4ccccc34)N1C(=O)c1ccccc12 [SLMP53-2] |  |  |  |  |  |  |  |  |

From patent US9732091B2, “Tryptophanol-derived oxazoloisoindolinones: small-molecule P53 activators” (UNIVERSIDADE DO PORTO, priority 2013, dated 2017)
